Reference: patent US20180110754A1, “CENICRIVIROC FOR THE TREATMENT OF FIBROSIS” (Tobira Therapeutics, Inc., priority 2015, published 2018)
One block for each compound: values may come before it.

How the values were obtained:
CCR2 = molecular target: T1, CCR2 (Homo sapiens, UniProt P41597); assay: MCP-1-induced CCR2 internalization / CCR2 receptor occupancy on monocytes (flow cytometry); assay type: cell-based
T1 construct: endogenous in cells; host or cells: monocytes within PBMCs from HIV+ and HIV- subjects
T1 sequence (P41597 1-360 isoform P41597-2): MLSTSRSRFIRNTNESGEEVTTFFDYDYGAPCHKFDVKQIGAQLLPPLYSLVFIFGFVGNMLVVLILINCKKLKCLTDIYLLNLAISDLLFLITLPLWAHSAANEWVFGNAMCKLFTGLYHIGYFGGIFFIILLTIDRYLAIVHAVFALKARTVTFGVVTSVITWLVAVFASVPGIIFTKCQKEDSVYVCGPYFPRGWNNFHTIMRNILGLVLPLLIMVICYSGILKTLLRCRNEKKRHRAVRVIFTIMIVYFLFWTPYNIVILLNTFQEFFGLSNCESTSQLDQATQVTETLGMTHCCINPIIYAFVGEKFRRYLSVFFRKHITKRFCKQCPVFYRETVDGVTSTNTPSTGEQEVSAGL
Experimental: (§1) The capacity of each drug to inhibit CCR5 or CCR2 internalization was evaluated. Cell-surface expression of CCR5 and CCR2 was assessed by flow cytometry, and fluorescence values were converted into molecules of equivalent soluble fluorescence (MESF).

[1] = tested on: thioglycollate-induced peritonitis (monocyte/macrophage and leukocyte recruitment); assay: Mouse thioglycollate-induced peritonitis model: peritoneal lavage cell counts, body weight; assay type: in vivo
Experimental: Summary: The mouse thioglycollate induced peritonitis model is a commonly used preclinical model to assess the recruitment of […] cells and to assess the activation of macrophages.
Dexamethasone was used as a positive control in this experiment as it is a corticosteroid known to reduce inflammation in a variety of animal models. Murine inflammation models indicate that the effective dose range for dexamethasone, when administered orally, is 0.3 to 3 mg/kg QD. On this basis, an intermediate dose of 1 mg/kg was chosen for this particular study.
The lavage was repeated with a second injection of 2.5 mL via the initial puncture site and the samples were pooled for each animal.
The lavage fluid was placed on wet ice pending processing for total and differential cell counts using the Advia analyzer. Following the lavage collection, a blood sample (0.7 mL) was collected from each mouse by intracardiac puncture or from the vena cava (collection time was recorded). 0.5 mL of blood was placed in an EDTA tube, transferred to clinical pathology and analyzed for differential cell counts using the Advia analyzer. 0.2 mL of blood was placed in a K2EDTA tube and processed to plasma. The plasma was collected by centrifugation (3000 rpm for 10 minutes at 4° C.) and placed on dry ice. […] After blood collection, the animals were then exsanguinated by sectioning of the abdominal aorta.
Statistical Analysis: One-way ANOVA with post-hoc Dunnett's statistical analysis was performed on differential cell counts obtained from lavage and blood samples. The analysis was performed in comparison to Group 2.

CCR5 [2] = molecular target: T2, CCR5 (Homo sapiens, UniProt P51681); assay: Inhibition of chemokine binding to CCR5-expressing CHO cells
T2 sequence (P51681 whole entry): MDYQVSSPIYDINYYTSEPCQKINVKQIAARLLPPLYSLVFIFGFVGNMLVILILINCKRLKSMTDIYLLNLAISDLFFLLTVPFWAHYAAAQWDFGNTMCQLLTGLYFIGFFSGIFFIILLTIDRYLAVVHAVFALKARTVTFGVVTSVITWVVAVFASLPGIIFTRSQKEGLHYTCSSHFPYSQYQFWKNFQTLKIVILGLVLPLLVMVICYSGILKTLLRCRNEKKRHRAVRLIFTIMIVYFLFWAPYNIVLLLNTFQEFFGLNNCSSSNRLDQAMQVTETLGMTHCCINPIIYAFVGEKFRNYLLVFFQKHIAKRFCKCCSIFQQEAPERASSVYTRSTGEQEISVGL

[3] = Solubility of cenicriviroc mesylate in solvents and aqueous solution; assay type: physicochemical
Excerpt: In one embodiment, the acid addition salt of cenicriviroc is cenicriviroc mesylate, e.g., (5)-8-[4-(2-Butoxyethoxy)phenyl]-1-isobutyl-N-(4-{[(1-propyl-1H-imidazol-5-yl)methyl]sulfinyl}phenyl)-1,2,3,4-tetrahydro-1-benzazocine-5-carboxamide monomethanesulfonoate. In one embodiment, the cenicriviroc mesylate is a crystalline material, such as a pale greenish-yellow crystalline powder.

HIV-1 BaL [4] = assay: Intracellular strong-stop HIV DNA in PM-1 cells infected with HIV-1 BaL; assay type: cell-based; settings: 4 hrs, CVC 20 nM, MVC 50 nM
Experimental: Both drugs were incubated with PM-1 cells for 1 hr at 37 C prior to the addition of virus. 500 ng of p24 antigen of HIV-1 BaL were incubated per 5×10^5 cells in 1 ml of R10 media. Virus only controls, described as “no cell” in the text, were used to measure viral decay. Viral adsorption was measured in the no-drug controls, whereby 500 ng of p24 Ag of HIV-1 Bal were added per 5×10^5 PM-1 cells that were pre-incubated at 37 C for 1 hr in the absence of drug treatment. Each drug treatment and control was performed in duplicate. Viral RNA was extracted from 140 μl of supernatant fluid using the QIAamp Viral RNA mini kit according to manufacturer's instructions. Samples were stored at −80 C until analysis. Supernatant viral loads were measured using quantitative real-time reverse transcription PCR (qRT-PCR) with the primers US1SSF (5′-[…]-3′), US1SSR (5′-[…]-3′) and US1SS probe (5′-(FAM) […]) and the Invitrogen qRT-PCR Supermix Kit. […] RNA copy number was quantified by use of 10-fold serial dilutions of pBaL/wt to generate standard curves for each assay and calibrated against samples with known copy numbers from previous studies.
Intracellular DNA qPCR. Total DNA was extracted, quantified, and stored at −80 C. Intracellular strong-stop DNA levels were quantified with the US1SS primer/probe set described above. […]

CCR5 [5] = molecular target: T2, CCR5; assay: RANTES-induced CCR5 internalization / CCR5 receptor occupancy in PBMCs (flow cytometry); assay type: cell-based
Experimental: as §1

HIV-1 BaL [6] = assay: Extracellular virus (viral RNA, p24) in culture fluids of PM-1 cells exposed to HIV-1 BaL; assay type: cell-based; settings: 4 hrs post-infection, CVC 20 nM, MVC 50 nM
Excerpt: Cells. PM-1 cells that express CD4, CCR5, and CXCR4 were maintained in RPMI-1640 medium containing 10% fetal bovine serum (R10 medium) at 37C, 5% CO2. 293T cells used for transfection were maintained in DMEM at 10% FBS, L-glutamine, and antibiotics (D10 medium) at 37C, 5% CO2. Virus Stocks. HIV-1 BaL virus was produced by transfecting 293T cells with the plasmid pWT/BaL. Lipofectamine 2000 was used as a transfection agent. Culture supernatants were collected at 48 hrs post-transfection, filtered through a 0.45 μm pore filter, and treated with 50 units of benzonase per ml of virus stock for 20 minutes at 37C to remove contaminating plasmid DNA. Virus stocks were frozen at −80C to halt benzonase activity. Benzonase-treated virus stocks were propagated in cord blood mononuclear cells (CBMCs). CBMCs were stimulated for 72 h with phytohemagluttinin (PHA-M) in R10 medium prior to infection with HIV-1 BaL. The viral amplification culture was subsequently grown in R10 supplemented with interleukin 2 (IL-2) and incubated at 37C, 5% CO2.
Both drugs were incubated with PM-1 cells for 1 hr at 37 C prior to the addition of virus. 500 ng of p24 antigen of HIV-1 BaL were incubated per 5×10^5 cells in 1 ml of R10 media. Virus only controls, described as “no cell” in the text, were used to measure viral decay. Viral adsorption was measured in the no-drug controls, whereby 500 ng of p24 Ag of HIV-1 Bal were added per 5×10^5 PM-1 cells that were pre-incubated at 37 C for 1 hr in the absence of drug treatment. Each drug treatment and control was performed in duplicate. Viral RNA was extracted from 140 μl of supernatant fluid using the QIAamp Viral RNA mini kit according to manufacturer's instructions. Samples were stored at −80 C until analysis. Supernatant viral loads were measured using quantitative real-time reverse transcription PCR (qRT-PCR) with the primers US1SSF (5′-[…]-3′), US1SSR (5′-[…]-3′) and US1SS probe (5′-(FAM) […]) and the Invitrogen qRT-PCR Supermix Kit. Cycling parameters were: 50° C. for 15 minutes, 95° C. for 10 minutes, followed by 50 cycles of 95° C. for 15 seconds, and 60° C. for 1 minute. All values are the result of replicate testing over 2 independent experiments. RNA copy number was quantified by use of 10-fold serial dilutions of pBaL/wt to generate standard curves for each assay and calibrated against samples with known copy numbers from previous studies.

Compound: CSc1ccc(C(=O)N[C@@H]2CCCC[C@@H]2NC(=O)CNC(=O)c2cc(C(F)(F)F)ccc2NC(=O)NC(C)C)cc1 [BMS-22, reference compound]
Concentration required to reach >80% CCR2 receptor occupancy (average) (CCR2): 18 nM
CCR2 cell-surface expression (CCR2; in the absence of MCP-1): slightly increased CCR2 cell-surface expression

Compound: C[C@@H]1C[C@H]2[C@@H]3CCC4=CC(=O)C=C[C@]4(C)[C@@]3(F)[C@@H](O)C[C@]2(C)[C@@]1(O)C(=O)CO [Dexamethasone, dexamethasone, reference compound]
Decrease in monocytes in peritoneal lavage vs thioglycollate control ([1]; Group 7, 1 mg/kg oral): 38.1%
Decrease in total leukocyte counts in peritoneal lavage vs thioglycollate control ([1]; Group 7, 1 mg/kg oral): 26.6%
Body weights, Days 1 to 6 ([1]; mouse, in vivo): decreased slightly

Compound: (5)-8-[4-(2-Butoxyethoxy)phenyl]-1-isobutyl-N-(4-{[(1-propyl-1H-imidazol-5-yl)methyl]sulfinyl}phenyl)-1,2,3,4-tetrahydro-1-benzazocine-5-carboxamide monomethanesulfonoate [cenicriviroc mesylate]
Solubility ([3]; 99.5% ethanol): sparingly soluble
Solubility ([3]; acetonitrile, 1-octanol, tetrahydrofuran): slightly soluble
Solubility ([3]; ethyl acetate and diethylether): practically insoluble
Solubility ([3]; glacial acetic acid, methanol, benzyl alcohol, dimethylsulfoxide, N,N-dimethylformamide): freely soluble
Solubility in aqueous solution ([3]; pH 1 to 2): freely soluble
Solubility in aqueous solution ([3]; pH 3): sparingly soluble
Solubility in aqueous solution ([3]; pH 4 to 13 and in water): practically insoluble
Solubility ([3]; pyridine and acetic anhydride): soluble

Compound: Maraviroc [MVC, reference compound]
Relative intracellular strong-stop HIV DNA level compared to no drug control (HIV-1 BaL [4]): 0.02
CCR5 receptor occupancy at saturation (CCR5 [5]; CD4+ T cells): ~86%
Effective concentration at which saturation of CCR5 was reached (CCR5 [5]; CD4+ T cells): 12.5 nM
CCR5 receptor occupancy at saturation (CCR5 [5]; CD8+ T cells): ~87%
Effective concentration at which saturation of CCR5 was reached (CCR5 [5]; CD8+ T cells): 12.5 nM
Cell-surface expression of CCR5 (CCR5 [5]; in the absence of RANTES): increased cell-surface expression of CCR5
p24 antigen level in culture fluids (HIV-1 BaL [6]; baseline 506 ng/ml): 520 ng/mL
Viral RNA in culture fluids (HIV-1 BaL [6]; baseline 1.19×10^10): 1.67×10^10 copies/ml

Now from value to compound:

IC50, inhibition of RANTES binding to CCR5-expressing cells (CCR5 [2]; CHO cells): no effect on binding of RANTES
Compound: CCCCOCCOc1ccc(-c2ccc3c(c2)C=C(C(=O)Nc2ccc(SC)cc2)CCCN3CC(C)C)cc1 [M-II]

IC50 relative to the IC50 of CVC (RANTES binding to CCR5) (CCR5 [2]): approximately 2 fold
IC50 (CCR5 [2]; CHO cells, read-out: IC50, inhibition of RANTES binding to CCR5-expressing cells): 6.5 nM
Compound: CCCCOCCOc1ccc(-c2ccc3c(c2)C=C(C(=O)Nc2ccc(S(=O)(=O)Cc4cncn4CCC)cc2)CCCN3CC(C)C)cc1 [M-I]
